The record followed here is patent publication EP0977755B1, “HETEROCYCLIC COMPOUNDS AND THEIR PREPARATION AND USE” (NOVO NORDISK A/S, priority 1997, dated 1998).

The test has as its target T1, m1 muscarinic receptor (Rattus norvegicus, UniProt P08482).
T1 construct: expressed in transfected cells; host or cells: A9 L cells (mouse fibroblast line)
T1 sequence (P08482 1-460): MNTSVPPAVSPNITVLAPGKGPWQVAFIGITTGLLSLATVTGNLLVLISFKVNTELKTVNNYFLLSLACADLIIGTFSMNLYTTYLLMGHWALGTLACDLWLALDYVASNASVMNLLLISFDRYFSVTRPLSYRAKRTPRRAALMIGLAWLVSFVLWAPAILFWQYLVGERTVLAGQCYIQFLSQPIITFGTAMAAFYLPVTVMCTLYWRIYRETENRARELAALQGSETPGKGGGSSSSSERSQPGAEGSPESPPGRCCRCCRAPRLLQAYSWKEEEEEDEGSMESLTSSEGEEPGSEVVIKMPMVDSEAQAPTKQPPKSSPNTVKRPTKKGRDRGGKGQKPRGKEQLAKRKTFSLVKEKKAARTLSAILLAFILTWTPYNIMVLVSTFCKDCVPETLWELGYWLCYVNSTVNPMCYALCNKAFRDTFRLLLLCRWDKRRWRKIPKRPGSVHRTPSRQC
The experiment in a line: IP hydrolysis in A9 L cells cloned with the genetic m1 muscarinic receptor. Conditions: for EC50: IP hydrolysis, seven point curves, three separate experiments; for Emax: A9L-m1, 0.75 h, read-out: % PI (efficacy). In kind it is cell-based, human and rat.

The mark [1] stands for this setting: percentage of total [3H]IP accumulated in the presence of 100 µM carbachol stimulation, 37°C for 45 min.

Structures can show the parent of a compound that is named as a salt. Where two headings read alike, the source gives them in different places.

Procedure: IP hydrolysis in A9 L cells cloned with the genetic m, muscarinic receptor: A9 L cells transfected with human and rat m, muscarinic receptors (Dörje et al., 1991; Jones et al., 1988), were cultured to confluence in 75-ml flasks containing Dulbecco's modified essential media. Cells were prelabeled with 1 µCi/ml of myo(2-[^3H]inositol (Amersham Inc., 16.3 Ci/mmol) for 48 hr before assaying. On the day of assay, cells were detached using a 30-sec exposure to 0.25% trypsin in 1 mM EDTA. The cells were collected by centrifugation (300 x g for 5 min) and resuspended in oxygenated HEPES buffer containing 10 mM LiCl (NaCl 142 mM, KCl 5.6 mM, CaCl2 2.2 mM, MgCl2 1 mM, NaHCO3 3.6 mM, D-glucose 5.6 mM and Na^+ HEPES 30 mM, pH 7.4). Cells were incubated at 37°C for 45 min in the presence of varying concentrations of test compounds. Total IP hydrolysis was determined using the method of Schoepp and Johnson (1988). […] Half-maximal (EC50) values were determined from the mean (±S.D.) of seven point curves determined from three separate experiments.

As for `C(#Cc1ccsc1)COc1nsnc1[C@@H]1CN2CCC[C@H]1C2.O=C(O)C(O)C(O)C(=O)O` [Compound 30, Endo (5R,6S)-6-(3-[3-(3-Thienyl)-2-propyn-1-yloxy]-1,2,5-thiadiazol-4-yl)-1-azabicyclo[3.2.1]octane, (+)-tartrate], under “read-out: EC50”, the EC50 came to 20 nM. In addition, under setting [1], the “% PI (efficacy)” value is given as 82%.
Molecule `C(#Cc1cccnc1)COc1nsnc1[C@@H]1CN2CCC[C@H]1C2` [Compound 31, Endo (5R,6S)-6-(3-[3-(3-Pyridyl)-2-propyn-1-yloxy]-1,2,5-thiadiazol-4-yl)-1-azabicyclo[3.2.1]octane, (+)-tartrate] showed an EC50 (EC50, nM) of 26 nM.
Consider `C(#Cc1ccccc1)CSc1nsnc1[C@H]1C[N@@]2CCC[C@H]1C2` [Compound 39, Exo (5R,6R)-6-(3-(3-Phenyl-2-propyn-1-ylthio)-1,2,5-thiadiazol-4-yl)-1-azabicyclo[3.2.1]octane. (+)-tartrate], for which the Emax under setting [1] stood at 105%. Further, under “read-out: EC50”, the EC50 amounted to 0.2 nM.
The corresponding values for `C(#Cc1ccccc1)COc1nsnc1[C@H]1C[N@@]2CCC[C@H]1C2` [Compound 40, Exo (5R,6R)-6-(3-(3-Phenyl-2-propyn-1-yloxy)-1,2,5-thiadiazol-4-yl)-1-azabicyclo[3.2.1]octane, oxalate] are 102% and 0.5 nM.
`COc1cccc(C#CCOc2nsnc2[C@H]2CN3CCC[C@H]2C3)c1` [Compound 41, Exo (5R,6R)-6-(3-(3-(3-Methoxyphenyl)-2-propyn-1-yfoxy)-1,2,5-thiadiazol-4-yl)-1-azabicyclo[3.2.1]octane, oxalate]: the Emax under setting [1] was 100%. For the same molecule, under “read-out: EC50”, the EC50 was found to be 2 nM.
The matching figures for `FC(F)(F)c1cccc(C#CCOc2nsnc2[C@H]2CN3CCC[C@H]2C3)c1` [Compound 42, Exo (5R,6R)-6-(3-(3-(3-Trifluoromethylphenyl)-2-propyn-1-yloxy)-1,2,5-thiadiazol-4-yl)-1-azabicyclo[3.2.1]octane, (+)-tartrate]: 99% and 12 nM.
The corresponding values for `COc1cccc(C#CC(C)Oc2nsnc2[C@H]2CN3CCC[C@H]2C3)c1` (stereo partly drawn) [Compound 43, Exo (5R,6R)-6-(3-(3-(3-Methoxyphenyl)-1-methyl-2-propyn-1-yloxy)-1,2,5-thiadiazol-4-yl)-1-azabicyclo[3.2.1]octane, (+)-tartrate] are 85% and 9 nM.
The corresponding values for `Clc1ccc(C#CCOc2nsnc2[C@H]2CN3CCC[C@H]2C3)cc1` [Compound 44, Exo (5R,6R)-6-(3-(3-(4-Chlorophenyl)-2-propyn-1-yloxy)-1,2,5-thiadiazol-4-yl)-1-azabicyclo[3.2.1]octane, (+)-tartrate] are 81% and 32 nM.
For the molecule `COc1cccc(C#CC(Oc2nsnc2[C@H]2CN3CCC[C@H]2C3)C(C)C)c1` (stereo partly drawn) [Compound 45, Exo (5R,6R)-6-(3-(1-(3-Methoxyphenyl)-4-methyl-1-pentyn-3-yloxy)-1,2,5-thiadiazol-4-yl)-1-azabicyclo[3 2.1]octane, (+)-tartrate], the Emax under setting [1] stood at 66%. Under “read-out: EC50”, the EC50 is 8 nM.
Regarding `CC(C#Cc1cccs1)Oc1nsnc1[C@H]1CN2CCC[C@H]1C2` (stereo partly drawn) [Compound 47, Exo (5R,6R)-6-(3-(3-(2-Thienyl)-1-methyl-2-propyn-1-yloxy)-1,2,5-thiadiazol-4-yl)-1-azabicyclo[3.2.1]octane, (+)-tartrate], the Emax under setting [1] was determined as 102%. The EC50 (read-out: EC50) was 102 nM.
Take `CC(C#Cc1ccsc1)Oc1nsnc1[C@H]1CN2CCC[C@H]1C2` (stereo partly drawn) [Compound 48, Exo (5R,6R)-6-(3-(3-(3-Thienyl)-1-methyl-2-propyn-1-yloxy)-1,2,5-thiadiazol-4-yl)-1-azabicyclo[3.2.1]octane, (+)-tartrate]: the Emax under setting [1] is 96%. Further, the EC50 (read-out: EC50) came out at 7 nM.
For `C(#Cc1cccs1)COc1nsnc1[C@H]1CN2CCC[C@H]1C2` [Compound 49, Exo (5R,6R)-6-(3-[3-(2-Thienyl)-2-propyn-1-yloxy]-1,2,5-thiadiazol-4-yl)-1-azabicyclo[3 2 1]octane, oxalate], the Emax under setting [1] stood at 100%. For the setting “read-out: EC50”, the EC50 came out at 0.7 nM.
The corresponding values for `C(#Cc1ccsc1)COc1nsnc1[C@H]1CN2CCC[C@H]1C2` [Compound 50, Exo (5R,6R)-6-(3-[3-(3-Thienyl)-2-propyn-1-yloxy]-1,2,5-thiadiazol-4-yl)-1-azabicyclo[3.2.1]octane, oxalate] are 101% and 2 nM.
Consider `O=C1CCCN1CC#CCN1CCCC1` [oxotremorine, reference compound], for which the midpoint of the response (EC50, nM), the EC50, lay at 16300 nM.

In general, EC50 refers to the midpoint of the concentration-response curve.
